Source: US9163021B2, “Pyrrolo[3,2-c]pyridine tropomyosin-related kinase inhibitors” (Pfizer Limited, priority 2012, dated 2015)

Each molecule was assayed against TRKA (Homo sapiens (Human), UniProt P04629) (assay: Isolated TRK enzyme assay (HTRF KinEASE-TK), PV3144 TrkA enzyme assay). Conditions: arithmetic mean where more than one reading.
Sequence of TRKA (P04629 441-796): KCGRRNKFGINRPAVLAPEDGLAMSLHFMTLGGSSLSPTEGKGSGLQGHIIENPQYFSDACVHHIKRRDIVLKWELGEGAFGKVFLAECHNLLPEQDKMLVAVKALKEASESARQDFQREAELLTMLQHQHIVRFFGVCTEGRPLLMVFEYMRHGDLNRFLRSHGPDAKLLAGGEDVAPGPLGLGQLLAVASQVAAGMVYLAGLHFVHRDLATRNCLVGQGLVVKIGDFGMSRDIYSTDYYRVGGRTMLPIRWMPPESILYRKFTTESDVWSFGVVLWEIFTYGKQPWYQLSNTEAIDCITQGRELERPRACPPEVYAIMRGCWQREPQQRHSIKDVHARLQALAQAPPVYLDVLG
Assay type: biochemical
How it was run: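 His-tagged TrkA cytoplasmic domain preactivated with ATP 20 min, then with compound 20 min at room temperature before 1 µM final biotin-TK substrate; HTRF 665/620 nm read.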
Molecule `CC(C)n1cc(C(=O)c2cc(NC(=O)Cn3ccc(C(F)(F)F)n3)ccn2)c2cnccc21` [Example 27, N-(2-{[1-(propan-2-yl)-1H-pyrrolo[3,2-c]pyridin-3-yl]carbonyl}pyridin-4-yl)-2[3-(trifluoromethyl)-1H-pyrazol-1-yl]acetamide] has an IC50 of 89.7 nM.
In the case of `Cc1cc(C(F)(F)F)nn1CC(=O)Nc1ccnc(C(=O)c2cn(C(C)C)c3ccncc23)c1` [Example 28, 2-[5-methyl-3-(trifluoromethyl)-1H-pyrazol-1-yl]-N-(2-{[1-(propan-2-yl)-1H-pyrrolo[3,2-c]pyridin-3-yl]carbonyl}pyridin-4-yl)acetamide], the IC50 is reported as 10.6 nM.
With `CC(C)n1cc(C(=O)c2cc(NC(=O)Cn3ccc(C4CC4)n3)ccn2)c2cnccc21` [Example 29, 2-(3-cyclopropyl-1H-pyrazol-1-yl)-N-(2-{[1-(propan-2-yl)-1H-pyrrolo[3,2-c]pyridin-3-yl]carbonyl}pyridin-4-yl)acetamide] the IC50 was 106 nM.
Molecule `CC(C)n1cc(C(=O)c2cc(NC(=O)Cn3cc(C(F)(F)F)cn3)ccn2)c2cnccc21` [Example 30, N-(2-{[1-(propan-2-yl)-1H-pyrrolo[3,2-c]pyridin-3-yl]carbonyl}pyridin-4-yl)-2[4-(trifluoromethyl)-1H-pyrazol-1-yl]acetamide] has an IC50 of 13.3 nM.
`CC(C)n1cc(C(=O)c2cncc(NC(=O)Cn3cc(C(F)(F)F)cn3)c2)c2cncc(F)c21` [Example 31, N-(5-{[7-fluoro-1-(propan-2-yl)-1H-pyrrolo[3,2-c]pyridin-3-yl]carbonyl}pyridin-3-yl)-2[4-(trifluoromethyl)-1H-pyrazol-1-yl]acetamide] gave an IC50 of 9.66 nM.
For `Cc1cc(C(F)(F)F)nn1CC(=O)Nc1cncc(C(=O)c2cn(C(C)C)c3c(F)cncc23)c1` [Example 32, N-(5-{[7-fluoro-1-(propan-2-yl)-1H-pyrrolo[3,2-c]pyridin-3-yl]carbonyl}pyridin-3-yl)-2-[5-methyl-3-(trifluoromethyl)-1H-pyrazol-1-yl]acetamide], the IC50 was 11.4 nM.
`CC(C)(CO)n1cc(C(=O)c2cncc(NC(=O)Cc3ccc(C(F)(F)F)cc3)c2)c2cnccc21` [Example 33, N-(5-{[1-(1-hydroxy-2-methylpropan-2-yl)-1H-pyrrolo[3,2-c]pyridin-3-yl]carbonyl}pyridin-3-yl)-2-[4-(trifluoromethyl)phenyl]acetamide] showed an IC50 of 3.11 nM.
`CC(C)n1cc(C(=O)c2cncc(NC(=O)Cc3ccc(C#N)c(C(F)(F)F)c3)c2)c2cnccc21` [Example 37, 2-[4-cyano-3-(trifluoromethyl)phenyl]-N-(5-{[1-(propan-2-yl)-1H-pyrrolo[3,2-c]pyridin-3-yl]carbonyl}pyridin-3-yl)acetamide] showed an IC50 of 51.7 nM.
Work on `CC(C)n1cc(C(=O)c2cncc(NC(=O)Cn3cc(C(F)(F)F)nn3)c2)c2cnccc21` [Example 38, N-(5-{[1-(propan-2-yl)-1H-pyrrolo[3,2-c]pyridin-3-yl]carbonyl}pyridin-3-yl)-2[4-(trifluoromethyl)-1H-1,2,3-triazol-1-yl]acetamide] yielded an IC50 of 147 nM.
Work on `COCc1nc(CC(=O)Nc2cncc(C(=O)c3cn(C(C)C)c4ccncc34)c2)c(C2CC2)o1` [Example 39, 2-[5-cyclopropyl-2-(methoxymethyl)-1,3-oxazol-4-yl]-N-(5-{[1-(propan-2-yl)-1H-pyrrolo[3,2-c]pyridin-3-yl]carbonyl}pyridin-3-yl)acetamide] yielded an IC50 of 181 nM.
Molecule `Cc1nonc1CC(=O)Nc1cncc(C(=O)c2cn(C(C)C)c3ccncc23)c1` [Example 40, 2-(4-methyl-1,2,5-oxadiazol-3-yl)-N-(5-{[1-(propan-2-yl)-1H-pyrrolo[3,2-c]pyridin-3-yl]carbonyl}pyridin-3-yl)acetamide] has an IC50 of 1730 nM.
For `CC(C)n1cc(C(=O)c2cncc(NC(=O)Cc3cn(C)cn3)c2)c2cnccc21` [Example 41, 2-(1-methyl-1H-imidazol-4-yl)-N-(5-{[1-(propan-2-yl)-1H-pyrrolo[3,2-c]pyridin-3-yl]carbonyl}pyridin-3-yl)acetamide], the IC50 was 3330 nM.
With `CC(C)n1cc(C(=O)c2cncc(NC(=O)Cc3nc(C(C)(C)C)nn3C)c2)c2cnccc21` [Example 42, 2-(3-tert-butyl-1-methyl-1H-1,2,4-triazol-5-yl)-N-(5-{[1-(propan-2-yl)-1H-pyrrolo[3,2-c]pyridin-3-yl]carbonyl}pyridin-3-yl)acetamide] the IC50 was 179 nM.
`CC(C)n1cc(C(=O)c2cncc(NC(=O)Cc3coc(C4CC4)n3)c2)c2cnccc21` [Example 43, 2-(2-cyclopropyl-1,3-oxazol-4-yl)-N-(5-{[1-(propan-2-yl)-1H-pyrrolo[3,2-c]pyridin-3-yl]carbonyl}pyridin-3-yl)acetamide] showed an IC50 of 118 nM.
With `COCCn1nc(C(C)(C)C)nc1CC(=O)Nc1cncc(C(=O)c2cn(C(C)C)c3ccncc23)c1` [Example 44, 2-[3-tert-butyl-1-(2-methoxyethyl)-1H-1,2,4-triazol-5-yl]-N-(5-{[1-(propan-2-yl)-1H-pyrrolo[3,2-c]pyridin-3-yl]carbonyl}pyridin-3-yl)acetamide] the IC50 was 531 nM.
Work on `CC(C)n1cc(C(=O)c2cncc(NC(=O)Cc3cncn3C)c2)c2cnccc21` [Example 45, 2-(1-methyl-1H-imidazol-5-yl)-N-(5-{[1-(propan-2-yl)-1H-pyrrolo[3,2-c]pyridin-3-yl]carbonyl}pyridin-3-yl)acetamide] yielded an IC50 of 1570 nM.
`CC(C)n1cc(C(=O)c2cncc(NC(=O)Cc3nccn3C)c2)c2cnccc21` [Example 46, 2-(1-methyl-1H-imidazol-2-yl)-N-(5-{[1-(propan-2-yl)-1H-pyrrolo[3,2-c]pyridin-3-yl]carbonyl}pyridin-3-yl)acetamide] showed an IC50 of 3080 nM.
Work on `COc1ncc(C(=O)c2cn(C(C)C)c3ccncc23)cc1NC(=O)Cc1ccc(C#N)cc1` [Example 47, 2-(4-cyanophenyl)-N-(2-methoxy-5-{[1-(propan-2-yl)-1H-pyrrolo[3,2-c]pyridin-3-yl]carbonyl}pyridin-3-yl)acetamide] yielded an IC50 of 187 nM.
Work on `COc1ncc(C(=O)c2cn(C(C)C)c3ccncc23)cc1NC(=O)Cn1nc(C(F)(F)F)cc1C` [Example 48, N-(2-methoxy-5-{[1-(propan-2-yl)-1H-pyrrolo[3,2-c]pyridin-3-yl]carbonyl}pyridin-3-yl)-2-[5-methyl-3-(trifluoromethyl)-1H-pyrazol-1-yl]acetamide] yielded an IC50 of 33.8 nM.
`CC(C)n1cc(C(=O)c2cncc(NC(=O)Cc3ccc(C#N)cc3)c2)c2cnccc21` [Example 49, 2-(4-cyanophenyl)-N-(5-{[1-(propan-2-yl)-1H-pyrrolo[3,2-c]pyridin-3-yl]carbonyl}pyridin-3-yl)acetamide] showed an IC50 of 180 nM.
`CC(C)n1cc(CC(=O)Nc2cncc(C(=O)c3cn(C(C)C)c4ccncc34)c2)c(C(F)(F)F)n1` [Example 50, N-(5-{[1-(propan-2-yl)-1H-pyrrolo[3,2-c]pyridin-3-yl]carbonyl}pyridin-3-yl)-2-[1-(propan-2-yl)-3-(trifluoromethyl)-1H-pyrazol-4-yl]acetamide] showed an IC50 of 133 nM.
`CC(C)n1cc(C(=O)c2cncc(NC(=O)Cn3cc(C4CC4)nn3)c2)c2cnccc21` [Example 51, 2-(4-cyclopropyl-1H-1,2,3-triazol-1-yl)-N-(5-{[1-(propan-2-yl)-1H-pyrrolo[3,2-c]pyridin-3-yl]carbonyl}pyridin-3-yl)acetamide] was tested, and the IC50 was 68.2 nM.
For `CC(C)n1cc(C(=O)c2cc(NC(=O)Cn3cc(C4CC4)nn3)ccn2)c2cnccc21` [Example 52, 2-(4-cyclopropyl-1H-1,2,3-triazol-1-yl)-N-(2-{[1-(propan-2-yl)-1H-pyrrolo[3,2-c]pyridin-3-yl]carbonyl}pyridin-4-yl)acetamide], the IC50 was 137 nM.
`CC(C)n1cc(C(=O)c2cc(NC(=O)Cn3cc(C(F)(F)F)nn3)ccn2)c2cnccc21` [Example 53, N-(2-{[1-(propan-2-yl)-1H-pyrrolo[3,2-c]pyridin-3-yl]carbonyl}pyridin-4-yl)-2-[4-(trifluoromethyl)-1H-1,2,3-triazol-1-yl]acetamide] showed an IC50 of 110 nM.
`CC(C)n1cc(C(=O)c2cc(NC(=O)Cc3ccc(C#N)cc3)ccn2)c2cnccc21` [Example 54, 2-(4-cyanophenyl)-N-(2-{[1-(propan-2-yl)-1H-pyrrolo[3,2-c]pyridin-3-yl]carbonyl}pyridin-4-yl)acetamide] showed an IC50 of 176 nM.
For `CC(C)n1cc(C(=O)c2cc(NC(=O)Cc3ccc(Cl)cn3)ccn2)c2cnccc21` [Example 55, 2-(5-chloropyridin-2-yl)-N-(2-{[1-(propan-2-yl)-1H-pyrrolo[3,2-c]pyridin-3-yl]carbonyl}pyridin-4-yl)acetamide], the IC50 was 73.8 nM.
With `CC(C)n1cc(C(=O)c2cc(NC(=O)Cc3cnn(C4CC4)c3C(F)(F)F)ccn2)c2cnccc21` [Example 56, 2-[1-cyclopropyl-5-(trifluoromethyl)-1H-pyrazol-4-yl]-N-(2-{[1-(propan-2-yl)-1H-pyrrolo[3,2-c]pyridin-3-yl]carbonyl}pyridin-4-yl)acetamide] the IC50 was 177 nM.
`CC(C)n1cc(C(=O)c2cc(NC(=O)Cc3cn(C4CC4)nc3C(F)(F)F)ccn2)c2cnccc21` [Example 57] gave an IC50 of 1680 nM.
For `Cc1nn(C)cc1CC(=O)Nc1ccnc(C(=O)c2cn(C(C)C)c3ccncc23)c1` [Example 58, 2-(1,3-dimethyl-1H-pyrazol-4-yl)-N-(2-{[1-(propan-2-yl)-1H-pyrrolo[3,2-c]pyridin-3-yl]carbonyl}pyridin-4-yl)acetamide], the IC50 was 6520 nM.
`CC(CO)n1cc(C(=O)c2cncc(NC(=O)Cn3ccc(C(F)(F)F)n3)c2)c2cnccc21` (centres unmarked) [Example 60, N-(5-{[1-(1-hydroxypropan-2-yl)-1H-pyrrolo[3,2-c]pyridin-3-yl]carbonyl}pyridin-3-yl)-2-[3-(trifluoromethyl)-1H-pyrazol-1-yl]acetamide] showed an IC50 of 44.7 nM.
`CC(CO)n1cc(C(=O)c2cncc(NC(=O)Cc3ccc(C#N)cc3)c2)c2cnccc21` (centres unmarked) [Example 67] gave an IC50 of 101 nM.
`CC(CO)n1cc(C(=O)c2cncc(NC(=O)Cn3ccc(C(F)(F)F)n3)c2)c2cnccc21` (centres unmarked) [Example 75, N-(5-{[1-(1-hydroxypropan-2-yl)-1H-pyrrolo[3,2-c]pyridin-3-yl]carbonyl}pyridin-3-yl)-2-[3-(trifluoromethyl)-1H-pyrazol-1-yl]acetamide] was tested, and the IC50 was 44.9 nM.
